Test results: PubChem BioAssay (NCI)
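Cells were grown in 96-well plates and exposed to each compound for 48 hours at five concentrations; endpoints were interpolated linearly between bracketing concentrations, or set to the highest concentration if not reached. GI50 marks 50% less growth. At the TGI there is no net growth.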

Experiments:
Test in all cases: inhibition of tumour cell growth, NCI panel, 48 h
[1] = system: IGROV1 ovarian
[2] = system: OVCAR-3 ovarian
[3] = system: RXF 393 renal
[4] = system: OVCAR-4 ovarian
[5] = system: SNB-75 CNS
[6] = system: HCT-116 colon
[7] = system: A498 renal
[8] = system: HT29 colon
[9] = system: CAKI-1 renal
[10] = system: ACHN renal
[11] = system: NCI/ADR-RES ovarian
[12] = system: SF-268 CNS
[13] = system: 786-0 renal
[14] = system: HL-60(TB) leukemia
[15] = system: SK-MEL-2 melanoma
[16] = system: EKVX NSCLC
[17] = system: HCT-15 colon
[18] = system: NCI-H522 lung
[19] = system: KM12 colon
[20] = system: COLO 205 colon
[21] = system: HCC-2998 colon
[22] = system: UO-31 renal
[23] = system: BT-549 breast
[24] = system: OVCAR-8 ovarian
[25] = system: T-47D breast
[26] = system: HS 578T breast
[27] = system: U251 CNS
[28] = system: MDA-MB-231 breast
[29] = system: TK-10 renal
[30] = system: SK-OV-3 ovarian
[31] = system: MCF7 breast
[32] = system: LOX IMVI melanoma
[33] = system: NCI-H226 lung
[34] = system: NCI-H23 lung
[35] = system: SNB-19 CNS
[36] = system: UACC-62 melanoma
[37] = system: CCRF-CEM leukemia
[38] = system: HOP-62 NSCLC
[39] = system: SF-295 CNS
[40] = system: K-562 leukemia
[41] = system: MOLT-4 leukemia
[42] = system: SK-MEL-28 melanoma
[43] = system: OVCAR-5 ovarian
[44] = system: SF-539 CNS

SMILES: Cn1c2c(cc(S(=O)(=O)c3ccccc3)c1=O)CCc1c-2cnn1-c1ccc(Cl)cc1
- GI50 [1]: 3.22 µM
- TGI [1]: > 100 µM
- GI50 [2]: 2.45 µM
- TGI [2]: 5.67 µM
- GI50 [3]: 1.9 µM
- TGI [3]: 3.71 µM
- GI50 [4]: 2.5 µM
- TGI [4]: 6.71 µM
- GI50 [5]: 1.93 µM
- TGI [5]: 4.02 µM
- GI50 [6]: 4.14 µM
- TGI [6]: > 100 µM
- GI50 [7]: 1.06 µM
- TGI [7]: 5.03 µM
- GI50 [8]: 3.31 µM
- TGI [8]: > 100 µM
- GI50 [9]: 4.36 µM
- TGI [9]: > 100 µM
- GI50 [10]: 1.98 µM
- TGI [10]: 3.88 µM
- GI50 [11]: 3.09 µM
- TGI [11]: 8.94 µM
- GI50 [12]: 2.24 µM
- TGI [12]: 5.12 µM
- GI50 [13]: 2.49 µM
- TGI [13]: 5.51 µM
- GI50 [14]: > 100 µM
- TGI [14]: > 100 µM
- GI50 [15]: 2.56 µM
- TGI [15]: 5.9 µM
- GI50 [16]: 3.62 µM
- TGI [16]: 31 µM
- GI50 [17]: 3.02 µM
- TGI [17]: > 100 µM
- GI50 [18]: 1.78 µM
- TGI [18]: 4.12 µM
- GI50 [19]: 5.12 µM
- TGI [19]: > 100 µM
- GI50 [20]: > 100 µM
- TGI [20]: > 100 µM
- GI50 [21]: 7.31 µM
- TGI [21]: > 100 µM
- GI50 [22]: 1.87 µM
- TGI [22]: 6.09 µM
- GI50 [23]: 3.03 µM
- TGI [23]: 7.82 µM
- GI50 [24]: 2.73 µM
- TGI [24]: 6.22 µM
- GI50 [25]: 2.06 µM
- TGI [25]: 5.5 µM
- GI50 [26]: 2.72 µM
- TGI [26]: 7.61 µM
- GI50 [27]: 2.1 µM
- TGI [27]: 3.98 µM
- GI50 [28]: 2.24 µM
- TGI [28]: 5.27 µM
- GI50 [29]: 2.26 µM
- TGI [29]: 5.17 µM
- GI50 [30]: 2.34 µM
- TGI [30]: 5.24 µM
- GI50 [31]: 4.59 µM
- TGI [31]: > 100 µM
- GI50 [32]: 4.09 µM
- TGI [32]: 17.3 µM
- GI50 [33]: 2.22 µM
- TGI [33]: 4.94 µM
- GI50 [34]: 4.65 µM
- TGI [34]: > 100 µM
- GI50 [35]: 2.01 µM
- TGI [35]: 4.33 µM
- GI50 [36]: 2.35 µM
- TGI [36]: 5.07 µM
- GI50 [37]: > 100 µM
- TGI [37]: > 100 µM
- GI50 [38]: 2.93 µM
- TGI [38]: 7.61 µM
- GI50 [39]: 2.09 µM
- TGI [39]: 5.04 µM
- GI50 [40]: > 100 µM
- TGI [40]: > 100 µM
- GI50 [41]: > 100 µM
- TGI [41]: > 100 µM
- GI50 [42]: 3.24 µM
- TGI [42]: 13.4 µM
- GI50 [43]: 3.37 µM
- TGI [43]: > 100 µM
- GI50 [44]: 1.87 µM
- TGI [44]: 3.4 µM
